The record followed here is ChEMBL document CHEMBL1201862, “PubChem BioAssay data set” (2004).

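1) Cells in 96-well plates. 2) Compound, 48 h, 5 concentrations. 3) Linear interpolation between surrounding doses. 4) Unreached endpoint = highest concentration. At the GI50, growth is halved.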 The source made the active and inactive calls. Cut-off read from the data, not from the text of the source: active = GI50 up to about 1.1 µM and inactive = higher. Bounds are passed on as bounds.

Test systems include HOP-62; TK-10; UACC-257; NCI-H23; UO-31; MOLT-4; SN12C; SW-620; HCT-15; DMS-273; OVCAR-3; HOP-92; Malme-3M; RPMI-8226; RXF 393; Hs-578T; LOX IMVI; MCF7; PC-3.
What all share (assay): growth of human tumour cells (NCI), 48 h

Take `COc1ccc2nc3cc(Cl)ccc3c(NCCC(=O)OCC(O)C(O)C(O[C@H](C)C(=O)NC(C)C(=O)NC(CCC(N)=O)C(=O)OCc3ccccc3)C(C=O)NC(C)=O)c2c1` (stereo partly specified): the GI50 with HOP-62 was 16.1 µM (inactive); in the assay on TK-10 it was 22.8 µM (inactive); with UACC-257, 95.7 µM (inactive); in the assay on NCI-H23 it was 14.4 µM (inactive); in the assay on UO-31 it was 20.5 µM (inactive); in the assay on MOLT-4 it was 15.4 µM (inactive). Moreover, the GI50 in the assay with SN12C is 16.1 µM (inactive); with SW-620, 15 µM (inactive); in the assay with HCT-15, 20.7 µM; in the assay with DMS-273, 14.2 µM (inactive); in the assay with OVCAR-3, 19.2 µM (inactive); with HOP-92, 17.8 µM (inactive). Further, the GI50 with Malme-3M is > 100 µM (inactive).

Take `CC(C)CCC/C(CBr)=C(\Cl)CCl`: the GI50 in the assay with RPMI-8226 was 0.948 µM (active); in the assay with RXF 393, 1.57 µM (inactive); in the assay with HOP-62, 8.02 µM (inactive); in the assay with Hs-578T, 2.45 µM (inactive); in the assay with LOX IMVI, 0.0728 µM (active); in the assay on MCF7 it was 4.08 µM (inactive). The GI50 was 1.88 µM (inactive) in the assay on TK-10; 2.13 µM (inactive) in the assay on UACC-257; 2.4 µM (inactive) in the assay on NCI-H23; 3.27 µM (inactive) in the assay on UO-31; 0.653 µM (active) in the assay on MOLT-4; 4.76 µM (inactive) in the assay on PC-3. Moreover, the GI50 in the assay with SN12C was 2.82 µM (inactive); in the assay on SW-620, 1.5 µM (inactive); in the assay with HCT-15 it was 2.8 µM; in the assay with OVCAR-3 it was 2.53 µM (inactive); in the assay on HOP-92, 2.14 µM (inactive); with Malme-3M, 2.59 µM (inactive).

As for `O=C(NCCN1CCOCC1)c1cn2c(ccc3sc4ccccc4c(=O)c32)n1`, the GI50 with RPMI-8226 is 8.24 µM (inactive); with RXF 393, 22 µM (inactive); in the assay with HOP-62 it was 12.3 µM (inactive); in the assay on Hs-578T, 12.2 µM (inactive); in the assay on LOX IMVI, 10.3 µM (inactive); in the assay with MCF7 it was 7.08 µM (inactive). Further, the GI50 with TK-10 is > 100 µM (inactive); with UACC-257 it was 34.6 µM (inactive); with NCI-H23 it was 20.7 µM (inactive); in the assay on UO-31 it was > 100 µM (inactive); in the assay on MOLT-4, 3.3 µM (inactive); in the assay on PC-3 it was 20.1 µM (inactive). For the same molecule, the GI50 in the assay on SN12C is 13.1 µM (inactive); in the assay with SW-620 it was 4.85 µM (inactive); in the assay with HCT-15, 10.3 µM; in the assay with OVCAR-3, > 100 µM (inactive); in the assay on HOP-92 it was 12.8 µM (inactive); in the assay on Malme-3M, 22.7 µM (inactive).

For `CC(C)C[C@H](NC(=O)[C@H](CCc1ccccc1)NC(=O)c1ccc2ccccc2n1)B(O)O`, the GI50 in the assay on RPMI-8226 is < 0.01 µM (active); in the assay on RXF 393 it was < 0.01 µM (active); with HOP-62, 0.176 µM (active); in the assay on Hs-578T, 0.0245 µM (active); with LOX IMVI, 0.0144 µM (active); with MCF7 it was < 0.01 µM (active). The GI50 in the assay with TK-10 is < 0.01 µM (active); in the assay with UACC-257 it was < 0.0156 µM (active); in the assay on NCI-H23, 0.0367 µM (active); in the assay with UO-31 it was 0.0845 µM (active); in the assay with MOLT-4, < 0.01 µM (active); in the assay with PC-3 it was 0.0731 µM (active). Further, the GI50 is < 0.01 µM (active) in the assay with SN12C; < 0.01 µM (active) in the assay with SW-620; 0.0883 µM with HCT-15; < 0.01 µM (active) in the assay with OVCAR-3; 0.0329 µM (active) in the assay with HOP-92; < 0.01 µM (active) in the assay with Malme-3M.

As to `CCOC(=O)C1Nc2ccccc2[C@H]2OCC[C@@H]12` (stereo partly specified), the GI50 in the assay on RXF 393, in the assay on HOP-62, with LOX IMVI, in the assay on TK-10, in the assay with UACC-257 and with NCI-H23 was > 100 µM (inactive) throughout. The GI50 was > 100 µM (inactive) in the assay with MOLT-4; > 100 µM (inactive) with SN12C; > 100 µM (inactive) in the assay with SW-620; > 100 µM in the assay on HCT-15; > 100 µM (inactive) in the assay on DMS-273; > 100 µM (inactive) in the assay on OVCAR-3. In addition, the GI50 with Malme-3M is > 100 µM (inactive).

With `CCCCCCCCCCCCC(O)C1CCC(C(O)CCCCCCC(O)CCCCCCCC2=CC(C)OC2=O)O1` (stereo unspecified), the GI50 in the assay on RPMI-8226 was 7.91 µM (inactive); with RXF 393, 22.9 µM (inactive); with HOP-62 it was 42.3 µM (inactive); in the assay with Hs-578T it was 4.4 µM (inactive); with LOX IMVI it was 13 µM (inactive); in the assay on MCF7, 0.745 µM (active). Besides, the GI50 with TK-10 is 35.4 µM (inactive); with UACC-257 it was 2.17 µM (inactive); in the assay on NCI-H23 it was 0.0109 µM (active); with UO-31, 3.08 µM (inactive); in the assay on MOLT-4, 7.29 µM (inactive); with PC-3 it was 31 µM (inactive). Also, the GI50 in the assay on SN12C was 25.8 µM (inactive); with SW-620, 8.3 µM (inactive); with HCT-15, 31.3 µM; in the assay with OVCAR-3, 20.8 µM (inactive); with HOP-92, 25.8 µM (inactive); with Malme-3M, 25.9 µM (inactive).

For the molecule `O=C(CN1CCCCC1)c1ccc2c(c1)Sc1ccccc1O2`, the GI50 is 30.8 µM (inactive) in the assay on RPMI-8226; 4.12 µM (inactive) in the assay on RXF 393; 16.1 µM (inactive) with HOP-62; 5.18 µM (inactive) with Hs-578T; 10.2 µM (inactive) in the assay with LOX IMVI; 15.9 µM (inactive) in the assay on MCF7. The GI50 in the assay on TK-10 is 18.9 µM (inactive); in the assay with UACC-257, 18.5 µM (inactive); with NCI-H23, 13.1 µM (inactive); with UO-31, 10.4 µM (inactive); in the assay on MOLT-4 it was 23.1 µM (inactive); in the assay with PC-3 it was 11.6 µM (inactive). Also, the GI50 in the assay on SN12C is 19.2 µM (inactive); with SW-620 it was 17.8 µM (inactive); in the assay with HCT-15, 11 µM; with OVCAR-3 it was 15.3 µM (inactive); in the assay with HOP-92, 7.64 µM (inactive); with Malme-3M it was 17.6 µM (inactive).

With `CC(=O)OCC(=O)O[C@@H]1[C@H]2[C@@H](OC(=O)c3ccccc3)[C@@H](C)C[C@]2(O)[C@H](OC(C)=O)[C@@]2(C)C(OC(C)=O)[C@]1(OC(C)=O)C[C@H]1C(=O)C(C)(C)C[C@@H]12` (stereo partly specified), the GI50 in the assay with RPMI-8226 is 13.3 µM (inactive); in the assay on RXF 393, > 50 µM (inactive); in the assay with HOP-62, > 22.6 µM (inactive); in the assay on Hs-578T, > 26.9 µM (inactive); in the assay on LOX IMVI it was > 50 µM (inactive); in the assay with MCF7 it was > 50 µM (inactive). The GI50 is > 50 µM (inactive) with TK-10; > 50 µM (inactive) in the assay with UACC-257; > 50 µM (inactive) in the assay with NCI-H23; > 50 µM (inactive) in the assay with UO-31; > 19.6 µM (inactive) in the assay on MOLT-4; > 47.9 µM (inactive) with PC-3. Besides, the GI50 in the assay with SN12C is > 50 µM (inactive); in the assay with SW-620, > 50 µM (inactive); with HCT-15, > 47.1 µM; with OVCAR-3, > 46.6 µM (inactive); in the assay with HOP-92 it was > 31.7 µM (inactive); in the assay with Malme-3M it was 35.9 µM (inactive).

For `COc1ccccc1NC(=O)C(C#N)=C(SC)SC`, the GI50 with RPMI-8226, in the assay on RXF 393, in the assay on HOP-62, with Hs-578T, in the assay on LOX IMVI and in the assay on MCF7 was > 100 µM (inactive) each time. For the same molecule, the GI50 in the assay on TK-10, in the assay with UACC-257, in the assay on NCI-H23, with UO-31, in the assay with MOLT-4 and in the assay on PC-3 was > 100 µM (inactive) throughout. Moreover, the GI50 was > 100 µM (inactive) in the assay with SN12C; > 100 µM (inactive) in the assay on SW-620; > 100 µM in the assay on HCT-15; > 100 µM (inactive) in the assay on OVCAR-3; 32.3 µM (inactive) with HOP-92; > 100 µM (inactive) with Malme-3M.

Take `Cn1c(N)c(/C=C/C(=O)Oc2ccccc2)c(=O)n(C)c1=O`: the GI50 in the assay on RPMI-8226 is > 100 µM (inactive); in the assay on RXF 393, 44.2 µM (inactive); in the assay on HOP-62 it was 19.1 µM (inactive); with Hs-578T it was 36 µM (inactive); with LOX IMVI, > 100 µM (inactive); in the assay on MCF7, 47.9 µM (inactive). Also, the GI50 in the assay with TK-10 was > 100 µM (inactive); in the assay on UACC-257 it was > 100 µM (inactive); with NCI-H23, > 100 µM (inactive); in the assay on UO-31, 49.7 µM (inactive); in the assay with MOLT-4, > 100 µM (inactive); with PC-3, > 100 µM (inactive). The GI50 in the assay with SN12C is 45.6 µM (inactive); with SW-620, > 100 µM (inactive); in the assay on HCT-15, > 100 µM; with OVCAR-3, > 100 µM (inactive); with HOP-92 it was 22.3 µM (inactive); in the assay with Malme-3M, > 100 µM (inactive).

As to `O=C(CCc1cccc(O)c1)NCCc1cccc(OCc2ccccc2)c1`, the GI50 with RPMI-8226 was 16.2 µM (inactive); with RXF 393, 19.7 µM (inactive); in the assay on HOP-62 it was 15.3 µM (inactive); with Hs-578T it was 16.4 µM (inactive); in the assay on LOX IMVI, 15.6 µM (inactive); in the assay on MCF7 it was 18.8 µM (inactive). The GI50 is 24.1 µM (inactive) in the assay on TK-10; 16.3 µM (inactive) in the assay with UACC-257; 18.9 µM (inactive) in the assay with NCI-H23; 8.93 µM (inactive) in the assay on UO-31; 11 µM (inactive) in the assay with MOLT-4; 10.3 µM (inactive) with PC-3. For the same molecule, the GI50 with SN12C is 18.8 µM (inactive); with SW-620 it was 21.3 µM (inactive); in the assay with HCT-15 it was 19.9 µM; with OVCAR-3, 6.55 µM (inactive); with HOP-92, 14.9 µM (inactive); in the assay on Malme-3M it was 17.6 µM (inactive).

As to `CCOC(=O)c1ccc2nc(-c3ccc(S(=O)(=O)F)cc3)cc(O)c2c1`, the GI50 in the assay with RPMI-8226 was 45.9 µM (inactive); in the assay on RXF 393 it was 31.9 µM (inactive); in the assay on HOP-62 it was 32.5 µM (inactive); with Hs-578T, 54.8 µM (inactive); with LOX IMVI, 36.5 µM (inactive); with MCF7, 30.1 µM (inactive). Further, the GI50 with TK-10 is 27.7 µM (inactive); in the assay with UACC-257 it was 51.8 µM (inactive); with NCI-H23 it was 21.6 µM (inactive); with UO-31, 71 µM (inactive); in the assay on MOLT-4, 36.8 µM (inactive); in the assay on PC-3, 50.6 µM (inactive). For the same molecule, the GI50 was 43.9 µM (inactive) in the assay on SN12C; 76.7 µM (inactive) in the assay on SW-620; 31.6 µM with HCT-15; 19.6 µM (inactive) in the assay with OVCAR-3; > 100 µM (inactive) in the assay with HOP-92; 25.1 µM (inactive) with Malme-3M.
